pIC50: −log10 of the molar value.
Experiments:
Test in all cases: NCI60 antitumor screening
Assay type in all cases: cell-based, human
UACC-257 = tested on: UACC-257
OVCAR-5 = tested on: OVCAR-5
HS 578T = tested on: HS 578T
NCI-H322M = tested on: NCI-H322M
HOP-92 = tested on: HOP-92
NCI-H522 = tested on: NCI-H522
OVCAR-8 = tested on: OVCAR-8
CAKI-1 = tested on: CAKI-1
KM12 = tested on: KM12
UACC-62 = tested on: UACC-62
HCC-2998 = tested on: HCC-2998
COLO 205 = tested on: COLO 205
IGROV1 = tested on: IGROV1
TK-10 = tested on: TK-10
RPMI-8226 = tested on: RPMI-8226
SNB-75 = settings: Homo sapiens; 10 μM single dose; SNB-75 (CNS cancer); read-out: growth inhibition percent (GI%)
MCF7 = tested on: MCF7
[1] = Homo sapiens, NCI-H322M, five-dose

N#Cc1c(-c2ccc(F)cc2)nc(SCc2ccccc2)nc1N1CCNCC1 [4e, 2-(Benzylthio)-4-(4-fluorophenyl)-6-(piperazin-1-yl) pyrimidine-5-carbonitrile]
CC50 (UACC-257; Homo sapiens, UACC-257, five-dose, read-out: LC50 (the source's name)): 52.6 µM
inhibition at 10 µM (UACC-257; Homo sapiens, 10 μM single dose, UACC-257 (melanoma), read-out: growth inhibition percent (GI%)): > 100%
TGI (UACC-257; five-dose): 26.20 µM
GI50 (OVCAR-5; Homo sapiens, OVCAR-5, five-dose): 14.1 µM
CC50 (OVCAR-5; Homo sapiens, OVCAR-5, five-dose, read-out: LC50 (the source's name)): 54.2 µM
inhibition at 10 µM (OVCAR-5; Homo sapiens, 10 μM single dose, OVCAR-5 (ovarian cancer), read-out: growth inhibition percent (GI%)): > 100%
TGI (OVCAR-5; five-dose): 27.60 µM
GI50 (HS 578T; Homo sapiens, Hs-578T, five-dose): 14.1 µM
CC50 (HS 578T; Homo sapiens, Hs-578T, five-dose, read-out: LC50 (the source's name)): 72.7 µM
inhibition at 10 µM (HS 578T; Homo sapiens, 10 μM single dose, HS 578T (breast cancer), read-out: growth inhibition percent (GI%)): > 100%
TGI (HS 578T; five-dose): 32.00 µM
GI50 (NCI-H322M; [1]): 14.3 µM
LC50 (50% lethal concentration) (NCI-H322M; [1]): 54.2 µM
inhibition at 10 µM (NCI-H322M; Homo sapiens, 10 μM single dose, NCI-H322M (non-small cell lung cancer), read-out: growth inhibition percent (GI%)): > 100%
TGI (NCI-H322M; five-dose): 27.90 µM
GI50 (HOP-92; Homo sapiens, HOP-92, five-dose): 4.2 µM
CC50 (HOP-92; Homo sapiens, HOP-92, five-dose, read-out: LC50 (the source's name)): 48.4 µM
inhibition at 10 µM (HOP-92; Homo sapiens, 10 μM single dose, HOP-92 (non-small cell lung cancer), read-out: growth inhibition percent (GI%)): > 100%
TGI (HOP-92; five-dose): 18.10 µM
GI50 (NCI-H522; Homo sapiens, NCI-H522, five-dose): 11.3 µM
CC50 (NCI-H522; Homo sapiens, NCI-H522, five-dose, read-out: LC50 (the source's name)): 55.8 µM
inhibition at 10 µM (NCI-H522; Homo sapiens, 10 μM single dose, NCI-H522 (non-small cell lung cancer), read-out: growth inhibition percent (GI%)): > 100%
TGI (NCI-H522; five-dose): 25.10 µM
GI50 (OVCAR-8; Homo sapiens, OVCAR-8, five-dose): 6.21 µM
CC50 (OVCAR-8; Homo sapiens, OVCAR-8, five-dose, read-out: LC50 (the source's name)): 59.1 µM
inhibition at 10 µM (OVCAR-8; Homo sapiens, 10 μM single dose, OVCAR-8 (ovarian cancer), read-out: growth inhibition percent (GI%)): > 100%
TGI (OVCAR-8; five-dose): 21.80 µM
GI50 (CAKI-1; Homo sapiens, CAKI-1, five-dose): 16 µM
CC50 (CAKI-1; Homo sapiens, CAKI-1, five-dose, read-out: LC50 (the source's name)): 55.1 µM
inhibition at 10 µM (CAKI-1; Homo sapiens, 10 μM single dose, CAKI-1 (renal cancer), read-out: growth inhibition percent (GI%)): > 100%
TGI (CAKI-1; five-dose): 29.70 µM
GI50 (KM12; Homo sapiens, KM12, five-dose): 17.1 µM
CC50 (KM12; Homo sapiens, KM12, five-dose, read-out: LC50 (the source's name)): 63.1 µM
inhibition at 10 µM (KM12; Homo sapiens, 10 μM single dose, KM12 (colon cancer), read-out: growth inhibition percent (GI%)): > 100%
TGI (KM12; five-dose): 32.80 µM
GI50 (UACC-62; Homo sapiens, UACC-62, five-dose): 14.4 µM
CC50 (UACC-62; Homo sapiens, UACC-62, five-dose, read-out: LC50 (the source's name)): 55 µM
inhibition at 10 µM (UACC-62; Homo sapiens, 10 μM single dose, UACC-62 (melanoma), read-out: growth inhibition percent (GI%)): > 100%
TGI (UACC-62; five-dose): 28.20 µM
GI50 (HCC-2998; Homo sapiens, HCC 2998, five-dose): 1.76 µM
CC50 (HCC-2998; Homo sapiens, HCC 2998, five-dose, read-out: LC50 (the source's name)): 5.89 µM
inhibition at 10 µM (HCC-2998; Homo sapiens, 10 μM single dose, HCC-2998 (colon cancer), read-out: growth inhibition percent (GI%)): > 100%
TGI (HCC-2998; five-dose): 3.22 µM
pIC50 (COLO 205; Homo sapiens, COLO 205): 5.78
GI50 (COLO 205; Homo sapiens, COLO 205, five-dose): 1.66 µM
CC50 (COLO 205; Homo sapiens, COLO 205, five-dose, read-out: LC50 (the source's name)): 6.04 µM
inhibition at 10 µM (COLO 205; Homo sapiens, 10 μM single dose, COLO 205 (colon cancer), read-out: growth inhibition percent (GI%)): > 100%
TGI (COLO 205; five-dose): 3.17 µM
inhibition at 10 µM (IGROV1; Homo sapiens, IGROV-1, 10 μM single dose, IGROV1 (ovarian cancer), read-out: growth inhibition percent (GI%)): > 100%
GI50 (IGROV1; Homo sapiens, IGROV-1, five-dose): 14.7 µM
CC50 (IGROV1; Homo sapiens, IGROV-1, five-dose, read-out: LC50 (the source's name)): 56.7 µM
TGI (IGROV1; five-dose): 28.90 µM
GI50 (TK-10; Homo sapiens, TK-10, five-dose): 14.5 µM
LC50 (TK-10; Homo sapiens, TK-10, five-dose): 55.5 µM
inhibition at 10 µM (TK-10; Homo sapiens, 10 μM single dose, TK-10 (renal cancer), read-out: growth inhibition percent (GI%)): > 100%
TGI (TK-10; five-dose): 28.40 µM
GI50 (RPMI-8226; Homo sapiens, RPMI-8226, five-dose): 3.99 µM
CC50 (RPMI-8226; Homo sapiens, RPMI-8226, five-dose, read-out: LC50 (the source's name)): 65.4 µM
inhibition at 10 µM (RPMI-8226; Homo sapiens, 10 μM single dose, RPMI-8226 (leukaemia), read-out: growth inhibition percent (GI%)): > 100%
TGI (RPMI-8226; five-dose): 17.50 µM
inhibition at 10 µM (SNB-75): > 100%
GI50 (MCF7; Homo sapiens, MCF7, five-dose): 3.94 µM
CC50 (MCF7; Homo sapiens, MCF7, five-dose, read-out: LC50 (the source's name)): 44.8 µM
inhibition at 10 µM (MCF7; Homo sapiens, 10 μM single dose, MCF7 (breast cancer), read-out: growth inhibition percent (GI%)): > 100%
TGI (MCF7; five-dose): 15.30 µM

— article PMC10620772, “Design, synthesis, and biological evaluation of new pyrimidine-5-carbonitrile derivatives as novel anti-cancer, dual EGFR^WT/COX-2 inhibitors with docking studies” (RSC Advances, 2023)
